Experiments:
[1] = tested on: wild-type and variant SNAP-GIPR; assay: Mini-Gs recruitment (nanoBiT) in AD293 cells; format: cell-based, human; conditions: 100 nM GIP, mean, n=7
Procedure: AD293 cells were reverse transfected with the GIPR variant or wild-type plasmids plus mini-Gs-LgBiT in a 1:1 ratio using Lipofectamine 2000 in 96-well white-bottom microplates precoated with 0.01% poly-D-lysine. All variants were tested in parallel on each occasion to control for transfection efficiency differences between experiments. After 24 hours, media were removed, cells washed once, and HBSS (Hanks’ balanced salt solution) containing furimazine (Promega, UK) at a 1:100 dilution was added. […] Responses were quantified by as fractional change from baseline with subtraction of the response to vehicle to account for substrate depletion, from which the AUC (area under the curve) was calculated and scaled to the average response obtained from each experiment.

[2] = tested on: wild-type and variant SNAP-GIPR; assay: cAMP concentration response (HTRF) in AD293 cells, SNAP-GIPR; format: cell-based, human
Procedure: (Imperial College London): 24 hours before the experiment, AD293 cells were reverse transfected with the GIPR variant or wild-type plasmids using Lipofectamine 2000 in 12-well plates. All variants were tested in parallel on each occasion to control for transfection efficiency differences between experiments. […] Data were fit using a three-parameter logistic model using GraphPad Prism 10.

CC[C@H](C)[C@H](NC(=O)[C@H](CO)NC(=O)[C@H](Cc1ccc(O)cc1)NC(=O)[C@H](CC(=O)O)NC(=O)[C@H](CO)NC(=O)[C@@H](NC(=O)[C@H](Cc1ccccc1)NC(=O)[C@@H](NC(=O)CNC(=O)[C@H](CCC(=O)O)NC(=O)[C@H](C)NC(=O)[C@@H](N)Cc1ccc(O)cc1)[C@@H](C)O)[C@@H](C)CC)C(=O)N[C@@H](C)C(=O)N[C@@H](CCSC)C(=O)N[C@@H](CC(=O)O)C(=O)N[C@@H](CCCCN)C(=O)N[C@H](C(=O)N[C@@H](Cc1c[nH]cn1)C(=O)N[C@@H](CCC(N)=O)C(=O)N[C@@H](CCC(N)=O)C(=O)N[C@@H](CC(=O)O)C(=O)N[C@@H](Cc1ccccc1)C(=O)N[C@H](C(=O)N[C@@H](CC(N)=O)C(=O)N[C@@H](Cc1c[nH]c2ccccc12)C(=O)N[C@@H](CC(C)C)C(=O)N[C@@H](CC(C)C)C(=O)N[C@@H](C)C(=O)N[C@@H](CCC(N)=O)C(=O)N[C@@H](CCCCN)C(=O)NCC(=O)N[C@@H](CCCCN)C(=O)N[C@@H](CCCCN)C(=O)N[C@@H](CC(N)=O)C(=O)N[C@@H](CC(=O)O)C(=O)N[C@@H](Cc1c[nH]c2ccccc12)C(=O)N[C@@H](CCCCN)C(=O)N[C@@H](Cc1c[nH]cn1)C(=O)N[C@@H](CC(N)=O)C(=O)N[C@H](C(=O)N[C@H](C(=O)N[C@@H](CCC(N)=O)C(=O)O)[C@@H](C)O)[C@@H](C)CC)C(C)C)[C@@H](C)CC [GIP, glucose-dependent insulinotropic polypeptide, reference compound]
mini-Gs recruitment ([1]; A207V): 1.64 vs. experimental average
mini-Gs recruitment ([1]; A268V): 1.037 vs. experimental average
mini-Gs recruitment ([1]; D66G): 0.1098 vs. experimental average
mini-Gs recruitment ([1]; E252D): 1.347 vs. experimental average
mini-Gs recruitment ([1]; E288G): 0.1501 vs. experimental average
mini-Gs recruitment ([1]; E354Q): 1.309 vs. experimental average
mini-Gs recruitment ([1]; E463Q): 1.656 vs. experimental average
mini-Gs recruitment ([1]; G438S): 1.599 vs. experimental average
mini-Gs recruitment ([1]; I378M): 1.145 vs. experimental average
mini-Gs recruitment ([1]; I403V): 1.332 vs. experimental average
mini-Gs recruitment ([1]; L100F): 1.391 vs. experimental average
mini-Gs recruitment ([1]; L262H): 1.034 vs. experimental average
mini-Gs recruitment ([1]; L262V): 1.282 vs. experimental average
mini-Gs recruitment ([1]; L304R): 0.04884 vs. experimental average
mini-Gs recruitment ([1]; R101H): 0.1049 vs. experimental average
mini-Gs recruitment ([1]; R131S): 1.232 vs. experimental average
mini-Gs recruitment ([1]; R136W): 0.7709 vs. experimental average
mini-Gs recruitment ([1]; R183Q): 0.3712 vs. experimental average
mini-Gs recruitment ([1]; R190Q): -0.001793 vs. experimental average
mini-Gs recruitment ([1]; R196G): 1.201 vs. experimental average
mini-Gs recruitment ([1]; R217L): 1.091 vs. experimental average
mini-Gs recruitment ([1]; R300W): 1.262 vs. experimental average
mini-Gs recruitment ([1]; R336P): 1.585 vs. experimental average
mini-Gs recruitment ([1]; R341P): 0.3717 vs. experimental average
mini-Gs recruitment ([1]; R404H): 1.074 vs. experimental average
mini-Gs recruitment ([1]; S64A): 0.6095 vs. experimental average
mini-Gs recruitment ([1]; S415G): 1.199 vs. experimental average
mini-Gs recruitment ([1]; S415I): 1.365 vs. experimental average
mini-Gs recruitment ([1]; S447T): 1.5239 vs. experimental average
mini-Gs recruitment ([1]; T116R): 0.9756 vs. experimental average
mini-Gs recruitment ([1]; WT): 1.184 vs. experimental average
cAMP signaling (∆LogEmax/EC50) ([2]; AD293, SNAP-GIPR E288G, R190Q, R101H, 0.1% BSA): markedly reduced responses
cAMP agonism ([2]; AD293, SNAP-GIPR R101H and R190Q): very weak agonists
cAMP signaling (∆LogEmax/EC50) ([2]; AD293, SNAP-GIPR S64A, R136W, R217L, vs wild-type): moderately reduced

Reference: article PMC13544220, “Glycemic and bodyweight effects of GIPR coding variation reflect differences in surface expression and intrinsic functional impairment” (Science Advances, 2026)
